Eleven compounds from PMC6270814, “Effects of Ursolic Acid Derivatives on Caco-2 Cells and Their Alleviating Role in Streptozocin-Induced Type 2 Diabetic Rats” (Molecules, 2014) can be followed below.

Test [1] has as its system Caco-2 cells. Nature of the test: MTT cytotoxicity assay on Caco-2 cells. The following applies: Homo sapiens, 24 h, mean ± SD, n = 4, read-out: Inhibition Rate %. The class given is cell-based, Human. Here is the method:
Human intestinal Caco-2 cells (ATCC, Rockville, MD, USA) were incubated at 37 °C in a humidified atmosphere of 5% CO2 in air. The cells were cultured in Dulbecco’s […] medium (DMEM) with 10% heat-inactivated fetal bovine serum, 1% non-essential amino acids, 1% L-glutamine, 1% penicillin/streptomycin (Gibco Life Technologies, Grand Island, NY, USA). The cells were sub-cultured at confluence by 0.05% trypsin-0.5 mM EDTA treatment before they were applied in the experiment.
A MTT test was conducted to determine the possible toxicity of UA and its derivatives to Caco-2 cells. Briefly, cells were seeded at a density of 1 × 10^4 cells/mL in a 96-well plate and incubated for 24 h. The next day, cells were incubated with vehicle (0.1% DMSO) and compounds at 100, 50, 25, 12.5 μmol/L for 24 h, and then 5 g/L MTT solution (20 μL) was added for 4 h. Absorbance at 570 nm was measured using a Multimodel Plate Reader (Infinite 200, Tecan, Mannedorf, Switzerland).

Test [2] relates to STZ-induced diabetic rats. Nature of the test: Fasting blood glucose in STZ-induced diabetic rats, 4 weeks treatment. The class given is in vivo, rat. The note with it: for Fasting Blood Glucose Level, Week 0: Week 0 (before treatment); for Fasting Blood Glucose Level, Week 0 / Fasting Blood Glucose Level, Week 1 / Fasting Blood Glucose Level, Week 2 / Fasting Blood Glucose Level, Week 3 / Fasting Blood Glucose Level, Week 4: compounds 100 mg/kg, n = 6; for Fasting Blood Glucose Level, Week 1 / Fasting Blood Glucose Level, Week 2 / Fasting Blood Glucose Level, Week 3 / Fasting Blood Glucose Level, Week 4: glibenclamide 10 mg/kg daily. Here is the method: Adult male albino rats of Sprague-Dawley rats (180–220 g) were obtained from the Guangdong Medical Lab Animal Center, and maintained under standard laboratory conditions in a temperature (25–30 °C) and light-controlled (12-h light/dark cycle) room with 35%–60% humidity. The animals were acclimatized for 10 days before the experiments and provided with rodent chow and water ad libitum. The investigation was conducted in accordance with the Guide for the Care and Use of Laboratory Animals and approved by the institutional Animal Ethics Committee.
(§1) Diabetes was induced by a single intraperitoneal injection of streptozotocin (Sigma-Aldrich, St. Louis, MO, USA) at a dose of 65 mg/kg body weight. STZ was dissolved in 0.1 M cold citrate buffer, pH 4.5. Control group were injected with citrate buffer alone. After 7 days for the development of diabetes, plasma glucose levels were determined of each rat. Rats with fasting blood glucose (FBG) range of above 16.7 mmol/L were considered as DM rats and were used for further study.
(§2) According to the body weight and plasma glucose levels the rats were divided randomly into seven groups with six rats each and treated as follows: • Group I: Normal rats treated with 0.5% CMC-Na (2 mL/200 g body weight). • Group II: Diabetic rats treated with 0.5% CMC-Na. • Group III: Diabetic rats treated with 10 mg/kg of glibenclamide. • Group IV: Diabetic rats treated with 100 mg/kg of compound 1 (UA). • Group V: Diabetic rats treated with 100 mg/kg of compound 10. • Group VI: Diabetic rats treated with 100 mg/kg of compound 11. • Group VII: Diabetic rats treated with 100 mg/kg of compound 12.
(§3) The treatment was continued daily for 28 days. Blood glucose levels and body weight were measured every week to ascertain the status of diabetes. After 4 weeks of treatment, the animals were fasted for 12 h and sacrificed by cervical dislocation under mild anaesthetization, blood was collected into heparinized tubes and centrifuged at 2,000 rpm for 10 min. Livers and kidneys were removed, washed and homogenized in ice-cold normal saline. This homogenates were centrifuged at 3,000 rpm for 10 min at 4 °C, and the supernatants were collected for the estimate of antioxidant markers.
(§4) Fasting blood glucose levels were estimated on days 0, 7, 14, 28 with the single touch glucometer (Life Scan, Johnson & Johnson Company, New Brunswick, NJ, USA). Serum insulin level was measured by use of a commercial immunoassay kit by enzyme linked immunosorbent assay (Uscn. Life Science Inc., Wuhan, China). Serum total protein, albumin, triglycerides (TG), total cholesterol (TC), high-density lipoprotein cholesterol (HDL-C), and low-density lipoprotein cholesterol (LDL-C) were measured with an automatic biochemical analyzer (Sinnowa D240, Nanjing, China).

Test [3] has as its system STZ-induced diabetic rats. Nature of the test: Serum lipid profile (TG, TC, LDL-C, HDL-C) in STZ-induced diabetic rats. The format is in vivo, rat. The following applies: 4 weeks, compounds 100 mg/kg, glibenclamide 10 mg/kg. Here is the method: as §1, §2, §3, §4
The subject of test [4] is STZ-induced diabetic rats. Nature of the test: Oxidative stress markers (GSH, SOD, MDA) in liver and kidney of STZ-induced diabetic rats. The class given is in vivo, rat. The following applies: 4 weeks; for MDA level in the liver: daily administration. Here is the method: as §1, §2, §3
The tissue homogenates of liver and kidney were used for the estimate of antioxidant markers. Glutathione (GSH) level was measured with 5, 5'-dithiobis-(2-nitrobenzoic acid) (DTNB) as described by Sedlak and Lindsay. Superoxide dismutase (SOD) activity was assessed according to the method of Sinha. Malondialdehyde (MDA) activity was estimated with the thiobarbituric acid method.

Test [5] deals with STZ-induced diabetic rats. Briefly: Serum biochemical parameters (insulin, total protein, albumin) in STZ-induced diabetic rats. The format is in vivo, rat. The note with it: 4 weeks, compounds 100 mg/kg, glibenclamide 10 mg/kg. The method, then: as §1, §2, §3, §4
Test [6] relates to STZ-induced diabetic rats. Briefly: Body weight and daily food intake of STZ-induced diabetic rats. The following applies: compounds 100 mg/kg, glibenclamide 10 mg/kg, oral. The class given is in vivo, rat. Here is the method: as §1, §2, §3
The test system of test [7] is Caco-2 cells. Briefly: 2-NBDG glucose uptake by Caco-2 cell monolayers, Na+-independent (sodium free buffer). The class given is cell-based, Human. The note with it: 100 μM compound, Na+-independent (KCl/K2HPO4 buffer). The method, then:
Caco-2 cells, which were derived from human colon adenocarcinoma, were selected for intestinal absorption studies because these cells express the morphological characteristics and most of the functional properties of differentiated small-intestinal enterocytes. Caco-2 cells were seeded on 24-well plates at the density of 2 × 10^5 cells/well. The medium was changed every 1–2 days, and the culture was carried out for 13 days. Then Caco-2 cells were placed in serum-free media for 24 h and then they were washed twice with Hanks’ balanced salt solution (HBSS, pH 7.5, 140 mM NaCl, 5 mM KCl, 1.2 mM Na2HPO4, 2 mM CaCl2, 1.2 mM MgSO4, 20 mM HEPES, 0.2% bovine serum albumin) before the uptake studies. When a sodium free buffer was required, NaCl and Na2HPO4 were replaced with equal amounts of KCl and K2HPO4, respectively. After washing, the cells were incubated for 15 min at room temperature in HBSS before the commencement of this experiment. The uptake studies were initiated by adding HBSS containing either control or test solution (100 μM) and […] (100 μM) for 30 min at 37 °C. Glucose uptake was stopped by adding twofold volume of ice-cold PBS and the wells were washed with ice-cold PBS three times. Fluorescent intensity was measured by a Multimodel Plate Reader (Tecan Infinity 200) with the 485 nmex and 535 nmemiss filter set before and after adding 2-NBDG. Then the cells were lysed in 200 μL lysis buffer (10 mM Tris-HCl pH = 7.4, 150 mM NaCl, 1% Triton-x-100, 1 mM EDTA, 0.1% SDS) and supplemented immediately before they were processed with 10 μg/mL PMSF. Cells were allowed to lyse on ice, and then vortexed and sonicated. The lysate was used for protein determination, protein concentrations were determined as described by BCA kit (Boster, Wuhan, China) with bovine serum albumin as standard.

The mark [8] stands for this setting: STZ diabetic rats, glibenclamide 10 mg/kg.

Broadly, the inhibition is the drop in the measured response relative to a control, in per cent. Turning to `CC(=O)O[C@H]1CC[C@@]2(C)C(CC[C@]3(C)C2CC=C2C4[C@@H](C)[C@H](C)CC[C@]4(C(=O)Nc4ccccc4Cl)CC[C@]23C)C1(C)C` (some centres unmarked) [Compound 7], in the test on Caco-2 cells [1], the inhibition at 100 µM was found to be 8.14 ± 3.81%.
In the case of `CC(=O)O[C@H]1CC[C@@]2(C)C(CC[C@]3(C)C2CC=C2C4[C@@H](C)[C@H](C)CC[C@]4(C(=O)Nc4ccc(Cl)cc4)CC[C@]23C)C1(C)C` (some centres unmarked) [Compound 4], in the test with Caco-2 cells [1], the inhibition at 100 µM was 8.53 ± 5.69%.
With `CC(=O)O[C@H]1CC[C@@]2(C)C(CC[C@]3(C)C2CC=C2C4[C@@H](C)[C@H](C)CC[C@]4(C(=O)Nc4ccccc4)CC[C@]23C)C1(C)C` (some centres unmarked) [Compound 2], in the test with Caco-2 cells [1], the inhibition at 100 µM stood at 5.02 ± 2.38%.
On to `COc1ccc(Cl)cc1C(=O)NCCc1ccc(S(=O)(=O)NC(=O)NC2CCCCC2)cc1` [Glibenclamide, reference compound], for which, in test [2] (setting [8]), the “Fasting Blood Glucose Level, Week 0” value worked out at 338.40 ± 16.38 mg/dL. In test [2] (STZ diabetic rats), the “Fasting Blood Glucose Level, Week 1” value is 271.80 ± 18.36 mg/dL; the “Fasting Blood Glucose Level, Week 2” value turned out to be 183.60 ± 11.70 mg/dL; the “Fasting Blood Glucose Level, Week 3” value was 216.00 ± 9.72 mg/dL; the “Fasting Blood Glucose Level, Week 4” value amounted to 203.40 ± 13.50 mg/dL. In addition, the “decrease in blood glucose levels as compared with diabetic control” value in test [2] (end of the 4 week treatment, compound 10 100 mg/kg, glibenclamide 10 mg/kg) came to 54.4%. Further, in test [3], the “serum TC level vs diabetic control” value is given as “significantly decreased” and the “serum TG level vs diabetic control” value is given as “significantly decreased”. Moreover, the “SOD level in the liver and kidney” value in test [4] (liver and kidney of STZ diabetic rats) is “great improvement”. Further, in test [4] (liver of STZ diabetic rats), the “GSH level in liver” value was “significant effects” and the “MDA level in the liver” value was “obviously down-regulated”. Moreover, in test [5], the “serum albumin level vs diabetic control” value is given as “increased significantly”, the “serum insulin level vs diabetic control” value was “increased significantly” and the “serum total protein level vs diabetic control” value was “increased significantly”. Further, the “daily food intake vs untreated diabetic rats” value in test [6] is listed as “reduce daily food intake significantly”.
For `O=C(CCc1ccc(O)cc1)c1c(O)cc(O)cc1O` [Phloretin, reference compound], in the test with Caco-2 cells [1], the inhibition at 100 µM was found to be 4.7 ± 2.59%.
For `CC(=O)O[C@H]1CC[C@@]2(C)C(CC[C@]3(C)C2CC=C2C4[C@@H](C)[C@H](C)CC[C@]4(C(=O)Nc4ccccc4Br)CC[C@]23C)C1(C)C` (some centres unmarked) [Compound 8], the inhibition at 100 µM in the test with Caco-2 cells [1] was found to be 9.86 ± 2.68%.
In the case of `CC(=O)O[C@H]1CC[C@@]2(C)C(CC[C@]3(C)C2CC=C2C4[C@@H](C)[C@H](C)CC[C@]4(C(=O)Nc4ccc(F)cc4)CC[C@]23C)C1(C)C` (some centres unmarked) [Compound 3], the inhibition at 100 µM in the test on Caco-2 cells [1] was 8.65 ± 3.49%.
`C[C@H]1[C@H](C)CC[C@]2(C(=O)O)CC[C@]3(C)C(=CC[C@@H]4[C@@]5(C)CC[C@H](O)C(C)(C)[C@@H]5CC[C@]43C)[C@H]12` [Compound 1, Ursolic acid]: the “effect on lowering fasting blood glucose levels” value in test [2] (STZ diabetic rats, 100 mg/kg, 4 weeks) is “no significant effect”. Besides, the “Fasting Blood Glucose Level, Week 0” value in test [2] (setting [8]) turned out to be 342.00 ± 19.08 mg/dL. Moreover, in test [2] (STZ diabetic rats), the “Fasting Blood Glucose Level, Week 1” value turned out to be 405.00 ± 17.46 mg/dL; the “Fasting Blood Glucose Level, Week 2” value is 392.40 ± 13.32 mg/dL; the “Fasting Blood Glucose Level, Week 3” value stood at 379.80 ± 19.44 mg/dL; the “Fasting Blood Glucose Level, Week 4” value turned out to be 396.00 ± 16.92 mg/dL. Further, in test [4] (kidney of STZ diabetic rats), the “GSH level in kidney” value is recorded as “great effect”. For the same compound, the “MDA level in the liver” value in test [4] (liver of STZ diabetic rats) is “obviously down-regulated”. The inhibition at 100 µM in the test with Caco-2 cells [1] came out at 9.88 ± 6.51%. Moreover, in test [5], the “serum albumin level vs diabetic control” value was “no appreciable improvement”, the “serum insulin level vs diabetic control” value is “non-significant effect” and the “serum total protein level vs diabetic control” value is given as “no appreciable improvement”. Besides, in test [6], the “daily food intake vs untreated diabetic rats” value was “no obvious decrease”.
Turning to `O=C(CCc1ccc(O)cc1)c1c(O)cc(O)cc1O[C@@H]1O[C@H](CO)[C@@H](O)[C@H](O)[C@H]1O` [Phlorizin, reference compound], the inhibition at 100 µM with Caco-2 cells [1] was determined as 7.7 ± 3.91%. For the same compound, the “glucose uptake, % of the control value (Na+-independent)” value with Caco-2 cells [7] is on record as 75 % of the control value.
Turning to `CC(=O)O[C@H]1CC[C@@]2(C)C(CC[C@]3(C)C2CC=C2C4[C@@H](C)[C@H](C)CC[C@]4(C(=O)O)CC[C@]23C)C1(C)C` (some centres unmarked) [Compound 9], the inhibition at 100 µM in the test on Caco-2 cells [1] turned out to be 4.4 ± 3.09%.
Turning to `CC(=O)O[C@H]1CC[C@@]2(C)C(CC[C@]3(C)C2CC=C2C4[C@@H](C)[C@H](C)CC[C@]4(C(=O)Nc4ccc(Br)cc4)CC[C@]23C)C1(C)C` (some centres unmarked) [Compound 5], the inhibition at 100 µM in the test on Caco-2 cells [1] turned out to be 8.72 ± 1.18%.
